According to patent US20160367620A1, “GLUTATHIONE” (priority 2015, published 2016):
Values joined by “and” are separate entries in the source; they are usually repeats but may differ in a detail not shown here. Equal values may be shown once. Read-outs that look alike come from different tables or passages of the source.

Columns and labels:
[1] = human, in vivo, iv
Excerpt: The kinetics and the effect of glutathione on plasma and urine sulfhydryls were studied in ten healthy human volunteers.

[2] = tested on: Peripheral Blood Mononuclear Cells (PBMC's)
Method: A total of 10,000 glutathione assays were performed.
The Phase I/II data, was based on approximately 10,000 glutathione assays of peripheral blood mononuclear cells (PBMC's) of HIV positive people given the drug regimen.
The study detailed in Appendix B administered the glutathione to HIV infected, otherwise healthy males between 18 and 65, with CD4+ cell counts above 500, not on any other medications.
24 HIV positive people received glutathione in a clinical trial. The first dose of one gram was taken at 0 time, or 10:00 a.m., and the second dose at 3 hours, or 1:00p.m. A baseline was measured two weeks earlier, on the same patient. A temporary intravenous catheter was in place for 7 hours to permit frequent blood sampling at the numerous time points.

HIV [3] = conditions: 75 mg/kg in two equally divided doses
human IL-4 production = conditions: stimulated peripheral blood T cells, Th0- and Th2-like T cell clones; cited from earlier work
NFκB and COX-2 = conditions: cited from earlier work
microglial cells = conditions: NO and superoxide generated via iNOS and NADPH-oxidase; cited from earlier work
HIV-1 [4] = conditions: human macrophages, exogenous GSH; cited from earlier work
Mouse [5] = conditions: cited from earlier work
[6] = human, in vivo, cited from earlier work
[7] = human, in vivo, po, 15 mg/kg; cited from earlier work
HIV-1 [8] = conditions: cited from earlier work; for persistence of anti-HIV-1 effect in culture: single pulse exposure, monocyte/macrophages in vitro
cytotoxic T-lymphocytes = conditions: mouse, injection of GSH on the third day post immunization; cited from earlier work
[9] = tested on: Concanavalin A stimulated proliferation of splenocytes; conditions: rats, dietary GSH supplementation; cited from earlier work
[10] = tested on: high-affinity component of mitochondrial glutathione transport; conditions: stimulated by ATP; cited from earlier work
[11] = i.v. GSH coadministration; cited from earlier work
[12] = tested on: glucose-induced insulin secretion; conditions: infusion 10 mg/min for 120 min, cited from earlier work
[13] = cited from earlier work
[14] = 1,200 mg/day i.v.; cited from earlier work
guinea pigs = conditions: ascorbate deficient guinea pigs, 3.75 mmol/kg daily (1,152 mg/kg daily) in three divided doses; cited from earlier work
hepatocellular carcinoma = conditions: 5 g oral per day, two female patients who survived 1 year; cited from earlier work
[15] = cited from earlier work; remark: listed apart in the source
Mouse [16] = conditions: pretreatment; cited from earlier work
[17] = tested on: mouse neuroblastoma cells; conditions: coadministration; cited from earlier work
[18] = rat, plasma; cited from earlier work
[19] = tested on: human immunodeficiency virus (HIV) expression; conditions: U1 cells; cited from earlier work
[20] = tested on: human venous endothelial cells and rat aortic smooth muscle cells; conditions: cited from earlier work
monocyte-macrophages = conditions: by conjugation of HNE; cited from earlier work
HIV [21] = conditions: chronically infected cells, exogenous GSH; cited from earlier work
herpes viruses = conditions: cell culture, extracellular glutathione; cited from earlier work
RPE cells = conditions: GSH supplemented in the medium; cited from earlier work
[22] = tested on: human alveolar macrophages (AM); conditions: AM previously exposed to LPS; cited from earlier work
[23] = tested on: influenza virus specific lymphocytes; conditions: cited from earlier work
HIV-1 LTR = conditions: Jurkat cells; cited from earlier work
NFκB activation by LPS = conditions: rats; cited from earlier work
[24] = tested on: murine macrophage J774 cells; conditions: pretreatment; cited from earlier work
HUVEC and QG90 cell = conditions: pretreatment of HUVEC, IL-1 induced; cited from earlier work

N[C@@H](CCC(=O)N[C@@H](CS)C(=O)NCC(=O)O)C(=O)O [GSH, gamma-glutamyl-cysteinyl-glycine]
half-life [1]: 14.1-9.2 minutes | intracellular glutathione insufficiency ([2]; PBMC's of HIV positive people): correction of the intracellular glutathione insufficiency was evident | dose dependence of PBMC glutathione ([2]; in vivo): dose response relationship | safety ([2]; in vivo): no evidence of toxicities | absorption and distribution within the PBMC completed ([2]; male, human, in vivo, po): 60 min | share absorbed and intracellular ([2]; male, human, in vivo, po): 80% | start of distribution into PBMC's / absorption after oral ingestion ([2]; male, human, in vivo, po): ≤ 0.5 h | survival after starting on GSH (HIV [3]; four far advanced AIDS patients who followed the regimen): 3 years | CD4+ cell counts (HIV [3]; four patients): did not restore their CD4+ cell counts to any extent | human IL-4 production (human IL-4 production): decreased in a dose-dependent manner | activation of NFκB and COX-2 by H. pylori infection (NFκB and COX-2): inhibited | peroxynitrite formation (microglial cells): significantly decreased peroxynitrite formation | production of p24 gag protein and virus infectivity (HIV-1 [4]): strongly suppressed | LD50 (Mouse [5]; Intramuscular): 4000 mg/kg | LD50 (Mouse [5]; Intraperitoneal): 4020 mg/kg and 6815 mg/kg | LD50 (Mouse [5]; Intravenous): 2238 mg/kg | LD50 (Mouse [5]; Oral): 5000 mg/kg | LD50 (Mouse [5]; Subcutaneous): 5000 mg/kg | volume of distribution of exogenous glutathione ([6]; iv): 176-107 MI/Kg | plasma concentration of total cyst(e)ine [6]: decreased | rise of plasma glutathione levels over the basal concentration [7]: 1.5-10 fold | HIV-1 expression in peripheral blood mononuclear cells (PBMC) (HIV-1 [8]; in vitro): blocked or substantially reduced | cellular toxicity in monocyte/macrophages (HIV-1 [8]; in vitro): without producing detectable cellular toxicity | duration of suppression of HIV production (HIV-1 [8]; infected monocytes, intracellular glutathione raised to the high end of the normal range): about 35 days | HIV-1 p24 antigen levels and reverse transcriptase activity (HIV-1 [8]; single pulse exposure of HIV-1-infected monocyte/macrophages): sustained, concentration-dependent decrease | persistence of anti-HIV-1 effect in culture (HIV-1 [8]): at least 35 days | persistence of anti-HIV-1 effect in culture (HIV-1 [8]; listed as glutathione): 35 days | augmentation of cytotoxic activity (cytotoxic T-lymphocytes): 5 fold | age-associated decline of immune response [9]: reverse age-associated decline of immune response | V max [10]: approximately 0.5 n mol/min per mg of protein | nephrotoxicity of cisplatin and/or cyclophosphamide combination therapy [11]: reduces associated nephrotoxicity | insulin clearance and action [12]: No effect | glucose-induced insulin secretion ([12]; patients with IGT): significantly potentiated glucose-induced insulin secretion | systolic and diastolic blood pressure ([13]; 1,844 mg i.v. bolus, hypertensive patients and non-hypertensive diabetics): rapid and significant decrease in both systolic and diastolic blood pressure | blood pressure ([13]; 1,844 mg i.v. bolus, normal healthy subjects): no effect | return of blood pressure to baseline ([13]; 1,844 mg i.v. bolus): ≤ 30 min | blood pressure values ([13]; 3,699 mg dose, normal subjects): significant decrease in the blood pressure values in normal subjects | hematologic parameters (hematocrit, hemoglobin, blood count) compared to baseline [14]: significantly increase studied hematologic parameters | toxicity (guinea pigs): toxic | tumor growth (hepatocellular carcinoma): regression or stagnation of their tumor growth | benefit ([15]; 3 grams daily for three months, 46 AIDS patients): no benefit was conclusively demonstrated | adverse effects ([15]; human, in vivo): No significant GSH-related adverse effects were reported | morphine-induced lethality (Mouse [16]): protects against morphine-induced lethality | deleterious effects of methylmercury [17]: largely prevented | share of the remaining 30% as GSSG [18]: 9.5% | share of the remaining 30% as the mixed disulfide with cysteine [18]: 62.6% | cytotoxic or cytostatic effects [19]: absence of cytotoxic or cytostatic effects | induction of HIV expression mediated by PMA, TNF-α, or IL-6 [19]: suppressed in a dose-dependent fashion | peroxynitrite induced suppression of mitochondrial respiration, nitrotyrosine formation, protein oxidation, DNA single strand breakage [20]: attenuated | macrophage death (monocyte-macrophages): protected against macrophage death | virus infectivity, budding and release of virus particles (HIV [21]): strongly suppresses | reproduction of herpes viruses (herpes viruses): inhibited or reduced | growth of RPE cell cultures (RPE cells): thrive

CC(=O)N[C@@H](CS)C(=O)O [NAC, N-Acetyl-L-Cysteine]
human IL-4 production (human IL-4 production): decreased in a dose-dependent manner | IL-12 secretion [22]: enhanced | IFN γ production [23]: increased | influenza virus specific lymphocyte proliferation [23]: increased | specific activity of influenza specific CD8+ CTL's [23]: enhanced | induction of HIV-1 LTR-mediated gene expression by TNF-α and Tat (HIV-1 LTR): significantly suppressed | activation of NFκB and COX-2 by H. pylori infection (NFκB and COX-2): inhibited | NFκB activation by LPS (NFκB activation by LPS): decreased | decrease of lung lavage neutrophil count (NFκB activation by LPS): six fold | protection of macrophages against SNAP [24]: protected | cell-to-cell attachment of cancer cells to HUVEC (HUVEC and QG90 cell): efficiently blocked the cell-to-cell attachment in a dose-dependent manner | cytotoxic or cytostatic effects [19]: absence of cytotoxic or cytostatic effects | induction of HIV expression mediated by PMA, TNF-α, or IL-6 [19]: suppressed in a dose-dependent fashion
